Laboratory results taken from patent publication US20220087987A1, “A METHOD FOR TREATING SWI/SNF COMPLEX-DEFICIENT CANCERS COMPRISING GLUTATHIONE (GSH) METABOLIC PATHWAY INHIBITOR” (National Cancer Center, priority 2018, published 2022).
Read-outs that look alike come from different tables or passages of the source. Numbered stars: 1 amine (or outer) side, 2 acyl side, 3 side chain; on linkers, the order of the positions; unused ones are H or OH. Bridge positions count the residues as written; N and C are the ends. Square brackets hold non-standard residues; d marks the D form. Peptide text beside a SMILES is read from it. I, II: the chains in the order shown. Actinocin(9to1) = Cc1c2oc3c(C)ccc(C(=O)[*:1])c3nc-2c(C(=O)[*:2])c(N)c1=O; NMeV = CN[C@H](C(=O)O)C(C)C; Sar = CNCC(=O)O

Tests used:
ARID1A-WT HCT116 cells = assay: Drug library screen, cell viability (CellTiter-Glo); format: cell-based, human; parameters: key to Cell viability, WT: % viability relative to DMSO solvent-treated cells
Method: (§1) ARID1A-WT and ARID1A-KO HCT116 cancer cells were used for screening assays. […] Cell viability was assessed after 5 days using the CellTiter-Glo Luminescent Cell Viability Assay (Promega). Luminescence was measured using an Envision Multi-label plate reader (PerkinElmer). The luminescence reading was used to determine the cell viability relative to that of cells treated with solvent (DMSO). Candidate compounds were considered if viability of ARID1A-KO cells was less than […] was more than 80%.

ARID1A-KO HCT116 cells = assay: as above; format: cell-based, human; parameters: key to Cell viability, KO: % viability relative to DMSO solvent-treated cells
Method: as §1

[1] = HCT116 ARID1A-WT, 10 μM for 5 days, relative to cells treated with solvent (DMSO)
[2] = HCT116 ARID1A-KO, 10 μM for 5 days, relative to cells treated with solvent (DMSO)

Row | Compound | Cell viability, WT (ARID1A-WT HCT116 cells; [1]) | Cell viability, KO (ARID1A-KO HCT116 cells; [2]) | Cell viability, WT (ARID1A-WT HCT116 cells) | Cell viability, KO (ARID1A-KO HCT116 cells)
1 | NS(=O)(=O)c1ccc(Nc2nc(OCC3CCCCC3)c3[nH]cnc3n2)cc1 [NU6102] | 112.51 | 124.8924 |  | 
2 | NC(=O)c1ccc2nc(-c3ccc(Oc4ccc(Cl)cc4)cc3)[nH]c2c1 [Chk2 inhibitor II] | 104.0524 | 139.2543 |  | 
3 | Nc1ncnc2nc(-c3ccc(N4CCOCC4)nc3)cc(-c3cccc(Br)c3)c12 [ABT-702] | 94.11 | 111.7532 |  | 
4 | Cc1cccc(-c2nn3c(c2-c2ccnc4ccc(C(N)=O)cc24)CCC3)n1 [LY2157299] | 91.31 | 113.5072 |  | 
5 | CCCNC(=O)[C@H]1O[C@@H]1C(=O)N[C@H](C(=O)N1CCC[C@H]1C(=O)O)[C@@H](C)CC [CA-074] | 107.6022 | 115.0436 |  | 
6 | O=C(NCCCCCCNC(=O)ON=C1CCCCC1)ON=C1CCCCC1 [RHC80267] | 82.45 | 92.22 |  | 
7 | CC(C)n1nc(-c2cc3cc(O)ccc3[nH]2)c2c(N)ncnc21 [Torkinib] | 8.777 | 9.988 |  | 
8 | Cc1cccc(-c2[nH]ncc2-c2ccc3ncccc3n2)n1 [TGF-b RI kinase inhibitor II] | 90.9 | 104.5326 |  | 
9 | CC(C)(C)n1nc(-c2cccc3ccccc23)c2c(N)ncnc21 [PP1 analog] | 76.55 | 69.2339 |  | 
10 | O=C(Nc1cccc(NC(=O)c2cccc(O)c2O)c1)c1cccc(O)c1O [MST-312] | 7.363 | 7.703 |  | 
11 | Oc1ccc(-c2nc(-c3ccc(F)cc3)c(-c3ccncc3)[nH]2)cc1 [SB202190] | 108.8022 | 191.0939 |  | 
12 | COc1ccc(C2=N[C@@H](c3ccc(Cl)cc3)[C@@H](c3ccc(Cl)cc3)N2C(=O)N2CCNC(=O)C2)c(OC(C)C)c1 [Nutlin-3] | 23.89 | 25.82 |  | 
13 | GSK-3 inhibitor IX | 105.4779 | 147.7846 |  | 
14 | COC(=O)[C@@]1(OC)C[C@H]2O[C@]1(C)n1c3ccccc3c3c4c(c5c6ccccc6n2c5c31)C(=O)N(C)C4 [KT 5823] | 102.1181 | 111.294 |  | 
15 | Cc1c[nH]c(/C=C2\C(=O)Nc3ccccc32)c1CCC(=O)O [SU5402] | 110.6763 | 139.2404 |  | 
16 | Clc1ccccc1CNCC1CCC(CNCc2ccccc2Cl)CC1 (stereo not drawn) [AY 9944] | 31.41 | 50.15 |  | 
17 | c1ccc2c(-c3cnn4cc(-c5ccc(N6CCNCC6)cc5)cnc34)ccnc2c1 [LDN193189] | 2.832 | 2.712 |  | 
18 | NC(=O)Nc1sc(-c2ccccc2)cc1C(N)=O [IKK-2 inhibitor VI] | 19.28 | 22.26 |  | 
19 | CCCCOc1cc(CC2CNC(=O)N2)ccc1OC (stereo not drawn) [Ro-20-1724] | 163.0432 | 105.8008 |  | 
20 | COc1cccc(-c2cc(=O)c3ccccc3o2)c1N [PD 98059] | 168.8128 | 111.8217 |  | 

Row | Compound | Cell viability, WT (ARID1A-WT HCT116 cells; [1]) | Cell viability, KO (ARID1A-KO HCT116 cells; [2]) | Cell viability, WT (ARID1A-WT HCT116 cells) | Cell viability, KO (ARID1A-KO HCT116 cells)
21 | CC1CCN=C(N)S1.Cl (stereo not drawn) [AMT, HCl] | 171.2223 | 139.818 |  | 
22 | Brc1c(Br)c(Br)c2n[nH]nc2c1Br [TBB] | 187.1148 | 147.5332 |  | 
23 | CC(C)c1cc(/C=C(\C#N)C(=O)NCCCc2ccccc2)cc(C(C)C)c1O [SU1498] | 165.2374 | 119.3751 |  | 
24 | Cn1cc(/C=C2\C(=O)Nc3ccc(S(N)(=O)=O)cc32)c2ccccc21 [Syk inhibitor] |  |  | 58.62 | 91.09
25 | CCCCCC#CCC#CCC#CCC#CCCCC(=O)O [ETYA] | 95.86 | 110.2846 |  | 
26 | Nc1nc(OCc2ccccc2)c2nc[nH]c2n1 [Benzylguanine] |  |  | 88.84 | 105.1044
27 | Cc1nc2c(O)cccc2c(=O)[nH]1 [NU1025] | 174.885 | 123.2356 |  | 
28 | COc1cc2nccc(Oc3ccc(NC(=S)NC(=O)c4ccccc4C)cc3)c2cc1OC | 99 | 107.0846 |  | 
29 | CN(C)CCCn1cc(C2=C(c3c[nH]c4ccccc34)C(=O)NC2=O)c2ccccc21.Cl [Bisindolymaleimide I, HCl] | 8.077 | 6.106 |  | 
30 | Tamoxifen, citrate | 24.8 | 18.66 |  | 
31 | CCN(CC)CCCCNc1ncc2cc(-c3cc(OC)cc(OC)c3)c(NC(=O)NC(C)(C)C)nc2n1 [PD173074] | 8.446 | 7.568 |  | 
32 | CC(C)C(C(=O)O)N1C(=O)/C(=C\c2ccc(Br)cc2)SC1=S (stereo not drawn) [BH3I-1] | 99.91 | 109.7951 |  | 
33 | C=CCc1cccc(/C=N/NC(=O)CN2CCN(Cc3ccccc3)CC2)c1O [PAC-1] | 6.045 | 9.44 |  | 
34 | O=c1onc2cnc3ccccc3n12 [ODQ] | 84.47 | 84.9 |  | 
35 | COC(=O)[C@H](Cc1ccc([N+](=O)[O-])cc1)NC(=O)c1cccc2ccccc12 [SB 328437] | 104.1947 | 112.6489 |  | 
36 | NC(=O)c1ccc(-c2nc(-c3ccc4c(c3)OCCO4)c(-c3ccccn3)[nH]2)cc1 [D4476] |  |  | 93.4 | 124.271
37 | c1cc(-c2cnn3cc(-c4ccc(OCCN5CCCCC5)cc4)cnc23)ccn1 [compound C] | 6.447 | 9.381 |  | 
38 | C=CCNC1=C2C[C@@H](C)C[C@H](OC)[C@H](O)[C@@H](C)/C=C(\C)[C@H](OC(N)=O)[C@@H](OC)/C=C\C=C(/C)C(=O)NC(=CC1=O)C2=O [17-AAG] | 8.063 | 8.214 |  | 
39 | Nc1cccc(-c2cc3c(Oc4cccc(O)c4)ncnc3[nH]2)c1 [TWS119] |  |  | 30.07 | 23.39
40 | O=C1C(Nc2ccccc2)=CC(=O)c2ncccc21 [LY 83583] | 4.357 | 4.788 |  | 

Row | Compound | Cell viability, WT (ARID1A-WT HCT116 cells; [1]) | Cell viability, KO (ARID1A-KO HCT116 cells; [2]) | Cell viability, WT (ARID1A-WT HCT116 cells) | Cell viability, KO (ARID1A-KO HCT116 cells)
41 | b-Rubromycin | 88.7 | 93.87 |  | 
42 | CCN(CC)CCNC(=O)c1c(C)[nH]c(/C=C2\C(=O)Nc3ccc(Cl)cc32)c1C [SU11652] | 4.735 | 8.987 |  | 
43 | Bleomycin sulfate | 27.28 | 30.2 |  | 
44 | Cc1c2oc3c(C)ccc(C(=O)N[C@@H]4C(=O)N[C@H](C(C)C)C(=O)N5CCC[C@H]5C(=O)N(C)CC(=O)N(C)[C@@H](C(C)C)C(=O)O[C@@H]4C)c3nc-2c(C(=O)N[C@@H]2C(=O)N[C@H](C(C)C)C(=O)N3CCC[C@H]3C(=O)N(C)CC(=O)N(C)[C@@H](C(C)C)C(=O)O[C@@H]2C)c(N)c1=O [Actinomycin D] (I: T[dV]P[Sar][NMeV] / II: T[dV]P[Sar][NMeV]; ester I:1-I:C, II:1-II:C; linker I:N-II:N via Actinocin(9to1)) | 6.951 | 6.531 |  | 
45 | Fc1ccc(Cl)cc1-c1nc(Nc2ccncc2)c2nccnc2n1 [SD208] | 73.72 | 78.9 |  | 
46 | CCOc1nc(NC(=O)Cc2cc(OC)ccc2OC)cc(N)c1C#N [JNK inhibitor VIII] | 127.134 | 189.4425 |  | 
47 | Cc1cc(C=C2C(=O)C=CC2=O)cc(C)c1O [TX-1918] | 117.0659 | 173.7673 |  | 
48 | Cc1nc(N)sc1-c1ccnc(Nc2cccc([N+](=O)[O-])c2)n1 [Cdk 2/9 inhibitor] | 6.309 | 14.26 |  | 
49 | N#C/C(=C/c1ccc(O)c(O)c1)C(=O)NCc1ccccc1 [AG490] | 152.9882 | 114.4173 |  | 
50 | Cc1ccc(NC(=O)c2cccc(N(C)C)c2)cc1NC(=O)c1ccc(O)cc1 [ZM 336372] | 121.6939 | 179.4192 |  | 
51 | CCN1/C(=C/C(C)=O)Sc2ccc(OC)cc21 [TG003] | 115.1966 | 138.6968 |  | 
52 | C=C1C(=O)OC(CCCCCCCC)C1C(=O)O (stereo not drawn) [C75] | 103.4877 | 93.63 |  | 
53 | COc1ccc(Cn2ccc3ccc(C(=O)NO)cc32)cc1 [PCI-34051] | 71.67 | 72.3 |  | 
54 | CC(C)(c1ccc(OCC2CO2)cc1)c1ccc(OCC2CO2)cc1 (stereo not drawn) [BADGE] | 93.59 | 107.888 |  | 
55 | COc1nccc(-c2c(-c3ccc(F)cc3)ncn2C2CCC(O)CC2)n1 (stereo not drawn) [SB239063] | 118.4502 | 174.3691 |  | 
56 | Nc1nc(Nc2ccc(S(N)(=O)=O)cc2)nn1C(=S)Nc1c(F)cccc1F [Cdk½ inhibitor III] | 8.59 | 18.12 |  | 
57 | O=C(Nc1cccc2cccnc12)c1ccc(N2C(=O)[C@@H]3[C@H](C2=O)[C@@H]2C=C[C@H]3C2)cc1 [IWR-1-endo] | 76.34 | 75.98 |  | 
58 | COc1ccc(S(=O)(=O)N(CCO)c2ccccc2CN(C)C/C=C/c2ccc(Cl)cc2)cc1 [KN93] | 20.89 | 23.47 |  | 
59 | Nc1ncn([C@@H]2O[C@H](CO)[C@@H](O)[C@H]2O)c(=O)n1 [Azacytidine] | 86.54 | 43.39 |  | 
60 | O=c1[nH]c2ccccc2n1C1CCN(Cc2ccc(-c3nc4cc5[nH]cnc5cc4nc3-c3ccccc3)cc2)CC1 | 84.5 | 124.843 |  | 
